Literature values, collected in paper PMC8513935.

Columns and labels:
[1] = log P octanol/water from commercial databases, averaged (the ESI); conditions: Octanol (wet), 25 C
[2] = experimental, compiled by the authors from the literature (the ESI cites the sources)
[3] = derived by the authors as gas->solvent minus gas->water (a hypothetical dry solvent; the ESI), not a two-phase measurement

c1ccc2c(c1)ccc1ccccc12
log K of transfer, water to solvent [1]: 4.49 log10 K | log K of transfer, gas to solvent ([2]; 2-Methylpropan-1-ol, 25 C): 7.01 log10 K | log K of transfer, gas to solvent ([2]; 2-Methylpropan-2-ol, 25 C): 7 log10 K | log K of transfer, gas to solvent ([2]; 3-Methylbutan-1-ol, 25 C): 7.13 log10 K | log K of transfer, gas to solvent ([2]; Acetonitrile, 25 C): 7.73 log10 K | log K of transfer, gas to solvent ([2]; Butan-1-ol, 25 C): 7.25 log10 K | log K of transfer, gas to solvent ([2]; Butan-2-ol, 25 C): 7.07 log10 K | log K of transfer, gas to solvent ([2]; Butanone, 25 C): 8.27 log10 K | log K of transfer, gas to solvent ([2]; Butyronitrile, 25 C): 8.19 log10 K | log K of transfer, gas to solvent ([2]; CCl4, 25 C): 8.05 log10 K | log K of transfer, gas to solvent ([2]; Chloroform, 25 C): 7.86 log10 K | log K of transfer, gas to solvent ([2]; Cyclohexane, 25 C): 7.41 log10 K | log K of transfer, gas to solvent ([2]; Cyclohexanone, 25 C): 8.33 log10 K | log K of transfer, gas to solvent ([2]; Di-n-butyl ether, 25 C): 7.72 log10 K | log K of transfer, gas to solvent ([2]; Ethanol, 25 C): 7.36 log10 K | log K of transfer, gas to solvent ([2]; Heptan-1-ol, 25 C): 7.41 log10 K | log K of transfer, gas to solvent ([2]; Hexadecane, 25 C): 7.63 log10 K | log K of transfer, gas to solvent ([2]; Hexane, 25 C): 7.35 log10 K | log K of transfer, gas to solvent ([2]; Methanol, 25 C): 7.24 log10 K | log K of transfer, gas to solvent ([2]; Octan-1-ol, 25 C): 7.52 log10 K | log K of transfer, gas to solvent ([2]; Pentan-1-ol, 25 C): 7.33 log10 K | log K of transfer, gas to solvent ([2]; Propan-1-ol, 25 C): 7.3 log10 K | log K of transfer, gas to solvent ([2]; Propan-2-ol, 25 C): 7.07 log10 K | log K of transfer, gas to solvent ([2]; Propanone, 25 C): 8.26 log10 K | log K of transfer, gas to solvent ([2]; Propionitrile, 25 C): 8.14 log10 K | log K of transfer, gas to solvent ([2]; Tetrahydrofuran, 25 C): 8.42 log10 K | log K of transfer, gas to solvent ([2]; Water, 25 C): 2.8 log10 K | log K of transfer, water to solvent ([3]; 2-Methylpropan-1-ol, 25 C): 4.21 log10 K | log K of transfer, water to solvent ([3]; 2-Methylpropan-2-ol, 25 C): 4.2 log10 K | log K of transfer, water to solvent ([3]; 3-Methylbutan-1-ol, 25 C): 4.33 log10 K | log K of transfer, water to solvent ([3]; Acetone, 25 C): 5.46 log10 K | log K of transfer, water to solvent ([3]; Acetonitrile, 25 C): 4.93 log10 K | log K of transfer, water to solvent ([3]; Butan-1-ol, 25 C): 4.45 log10 K | log K of transfer, water to solvent ([3]; Butan-2-ol, 25 C): 4.27 log10 K | log K of transfer, water to solvent ([3]; Butanone, 25 C): 5.47 log10 K | log K of transfer, water to solvent ([3]; Butyronitrile, 25 C): 5.39 log10 K | log K of transfer, water to solvent ([3]; CCl4, 25 C): 5.25 log10 K | log K of transfer, water to solvent ([3]; Chloroform, 25 C): 5.06 log10 K | log K of transfer, water to solvent ([3]; Cyclohexane, 25 C): 4.61 log10 K | log K of transfer, water to solvent ([3]; Cyclohexanone, 25 C): 5.53 log10 K | log K of transfer, water to solvent ([3]; Di-n-butyl ether, 25 C): 4.92 log10 K | log K of transfer, water to solvent ([3]; Ethanol, 25 C): 4.56 log10 K | log K of transfer, water to solvent ([3]; Heptan-1-ol, 25 C): 4.61 log10 K | log K of transfer, water to solvent ([3]; Hexadecane, 25 C): 4.83 log10 K | log K of transfer, water to solvent ([3]; Hexane, 25 C): 4.55 log10 K | log K of transfer, water to solvent ([3]; Methanol, 25 C): 4.44 log10 K | log K of transfer, water to solvent ([3]; Octan-1-ol(dry), 25 C): 4.72 log10 K | log K of transfer, water to solvent ([3]; Pentan-1-ol, 25 C): 4.53 log10 K | log K of transfer, water to solvent ([3]; Propan-1-ol, 25 C): 4.5 log10 K | log K of transfer, water to solvent ([3]; Propan-2-ol, 25 C): 4.27 log10 K | log K of transfer, water to solvent ([3]; Propionitrile, 25 C): 5.34 log10 K | log K of transfer, water to solvent ([3]; Tetrahydrofuran, 25 C): 5.62 log10 K

CCCC(=O)CCC
log K of transfer, water to solvent [1]: 2.04 log10 K | log K of transfer, gas to solvent ([2]; Di-n-butyl ether, 25 C): 4.12 log10 K | log K of transfer, gas to solvent ([2]; Hexadecane, 25 C): 3.7 log10 K | log K of transfer, gas to solvent ([2]; Methanol, 25 C): 4.23 log10 K | log K of transfer, gas to solvent ([2]; Water, 25 C): 2.25 log10 K | log K of transfer, water to solvent ([3]; Di-n-butyl ether, 25 C): 1.87 log10 K | log K of transfer, water to solvent ([3]; Hexadecane, 25 C): 1.45 log10 K | log K of transfer, water to solvent ([3]; Methanol, 25 C): 1.98 log10 K

CCCCCCCCO
log K of transfer, water to solvent [1]: 3.07 log10 K | log K of transfer, gas to solvent ([2]; Benzene, 25 C): 5.91 log10 K | log K of transfer, gas to solvent ([2]; Butanone, 25 C): 6.01 log10 K | log K of transfer, gas to solvent ([2]; Butyronitrile, 25 C): 5.69 log10 K | log K of transfer, gas to solvent ([2]; CCl4, 25 C): 5.09 log10 K | log K of transfer, gas to solvent ([2]; Hexadecane, 25 C): 4.62 log10 K | log K of transfer, gas to solvent ([2]; Hexan-1-ol, 25 C): 6.29 log10 K | log K of transfer, gas to solvent ([2]; Methanol, 25 C): 5.89 log10 K | log K of transfer, gas to solvent ([2]; Octan-1-ol, 25 C): 6.03 log10 K | log K of transfer, gas to solvent ([2]; Water, 25 C): 3 log10 K | log K of transfer, water to solvent ([3]; Benzene, 25 C): 2.91 log10 K | log K of transfer, water to solvent ([3]; Butanone, 25 C): 3.01 log10 K | log K of transfer, water to solvent ([3]; Butyronitrile, 25 C): 2.69 log10 K | log K of transfer, water to solvent ([3]; CCl4, 25 C): 2.09 log10 K | log K of transfer, water to solvent ([3]; Hexadecane, 25 C): 1.62 log10 K | log K of transfer, water to solvent ([3]; Hexan-1-ol, 25 C): 3.29 log10 K | log K of transfer, water to solvent ([3]; Methanol, 25 C): 2.89 log10 K | log K of transfer, water to solvent ([3]; Octan-1-ol(dry), 25 C): 3.03 log10 K
